Test results published in ChEMBL document CHEMBL5465560, “Selectivity Literature for EUbOPEN Chemogenomic Library” (2024).

Assays:
[1] = molecular target: RAC-beta serine/threonine-protein kinase (Homo sapiens) (UniProt P31751); assay: Selectivity interaction (KinomeScan (DiscoverX)) EUB0000655a AKT2; details: at 10 µM
[2] = molecular target: T1, Dual specificity mitogen-activated protein kinase kinase 7 (Homo sapiens) (UniProt O14733); assay: Selectivity interaction (Kinase panel (KiNativ target engagement assay in Jurkat cells)) EUB0001635a MAP2K7; format: cell-based; details: Selectivity number of off-targets 0.0, Selectivity number of targets 233.0, Source Knowledge https://www.sciencedirect.com/science/article/pii/S2451945619300674?via%3Dihub, at 1 µM
T1 sequence (whole entry): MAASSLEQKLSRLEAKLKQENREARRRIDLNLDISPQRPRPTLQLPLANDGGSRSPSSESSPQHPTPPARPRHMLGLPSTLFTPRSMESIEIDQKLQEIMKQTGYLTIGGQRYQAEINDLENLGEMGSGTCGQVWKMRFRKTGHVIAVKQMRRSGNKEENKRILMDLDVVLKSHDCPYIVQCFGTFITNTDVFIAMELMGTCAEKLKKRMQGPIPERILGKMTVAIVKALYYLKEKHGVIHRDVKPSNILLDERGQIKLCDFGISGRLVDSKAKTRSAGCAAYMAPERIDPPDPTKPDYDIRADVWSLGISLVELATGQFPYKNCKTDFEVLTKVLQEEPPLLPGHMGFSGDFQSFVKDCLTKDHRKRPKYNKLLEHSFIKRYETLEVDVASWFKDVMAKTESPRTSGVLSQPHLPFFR

[3] = molecular target: T2, Serine/threonine-protein kinase D1 (Homo sapiens) (UniProt Q15139); details: at 10 µM
T2 sequence (whole entry): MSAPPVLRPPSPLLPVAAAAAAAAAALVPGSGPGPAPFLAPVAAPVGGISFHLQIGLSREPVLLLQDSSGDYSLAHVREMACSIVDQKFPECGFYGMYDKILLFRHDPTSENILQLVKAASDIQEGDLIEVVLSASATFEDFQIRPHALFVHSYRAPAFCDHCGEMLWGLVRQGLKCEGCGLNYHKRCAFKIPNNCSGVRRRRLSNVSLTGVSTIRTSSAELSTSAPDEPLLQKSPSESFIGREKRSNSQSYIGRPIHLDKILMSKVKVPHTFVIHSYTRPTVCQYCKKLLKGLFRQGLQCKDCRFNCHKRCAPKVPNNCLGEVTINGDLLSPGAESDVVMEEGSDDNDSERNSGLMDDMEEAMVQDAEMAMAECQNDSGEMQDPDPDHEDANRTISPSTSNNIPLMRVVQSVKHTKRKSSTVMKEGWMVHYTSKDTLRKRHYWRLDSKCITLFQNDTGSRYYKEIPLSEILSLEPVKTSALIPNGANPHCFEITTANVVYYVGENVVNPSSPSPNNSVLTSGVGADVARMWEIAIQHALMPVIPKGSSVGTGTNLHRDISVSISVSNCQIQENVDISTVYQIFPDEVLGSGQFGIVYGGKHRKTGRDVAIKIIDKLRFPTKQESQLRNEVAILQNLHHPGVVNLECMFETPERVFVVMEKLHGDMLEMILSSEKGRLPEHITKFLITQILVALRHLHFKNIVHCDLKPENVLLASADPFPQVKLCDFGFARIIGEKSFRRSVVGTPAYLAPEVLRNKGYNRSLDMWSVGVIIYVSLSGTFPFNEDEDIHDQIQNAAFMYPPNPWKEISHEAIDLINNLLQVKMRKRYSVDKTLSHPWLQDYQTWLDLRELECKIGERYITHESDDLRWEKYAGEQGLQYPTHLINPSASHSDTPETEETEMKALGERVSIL

[4] = tested on: Fibroblast growth factor receptor 3 (Homo sapiens), P22607 [G697C]; assay: (§1) Selectivity interaction (LanthaScreen Eu Kinase Binding Assay) EUB0001632a FGFR3; details: at 10 µM
[5] = tested on: Fibroblast growth factor receptor 3 (Homo sapiens), P22607 [K650M]; assay: as §1; details: at 10 µM
[6] = molecular target: Receptor tyrosine-protein kinase erbB-4 (Homo sapiens, UniProt Q15303); assay: Selectivity interaction (KinomeScan (DiscoverX)) EUB0000607a ERBB4; details: at 10 µM
[7] = molecular target: T3, Mitogen-activated protein kinase kinase kinase 13 (Homo sapiens) (UniProt O43283); assay: Selectivity interaction (KinomeScan (DiscoverX)) EUB0000045b MAP3K13
T3 sequence (whole entry): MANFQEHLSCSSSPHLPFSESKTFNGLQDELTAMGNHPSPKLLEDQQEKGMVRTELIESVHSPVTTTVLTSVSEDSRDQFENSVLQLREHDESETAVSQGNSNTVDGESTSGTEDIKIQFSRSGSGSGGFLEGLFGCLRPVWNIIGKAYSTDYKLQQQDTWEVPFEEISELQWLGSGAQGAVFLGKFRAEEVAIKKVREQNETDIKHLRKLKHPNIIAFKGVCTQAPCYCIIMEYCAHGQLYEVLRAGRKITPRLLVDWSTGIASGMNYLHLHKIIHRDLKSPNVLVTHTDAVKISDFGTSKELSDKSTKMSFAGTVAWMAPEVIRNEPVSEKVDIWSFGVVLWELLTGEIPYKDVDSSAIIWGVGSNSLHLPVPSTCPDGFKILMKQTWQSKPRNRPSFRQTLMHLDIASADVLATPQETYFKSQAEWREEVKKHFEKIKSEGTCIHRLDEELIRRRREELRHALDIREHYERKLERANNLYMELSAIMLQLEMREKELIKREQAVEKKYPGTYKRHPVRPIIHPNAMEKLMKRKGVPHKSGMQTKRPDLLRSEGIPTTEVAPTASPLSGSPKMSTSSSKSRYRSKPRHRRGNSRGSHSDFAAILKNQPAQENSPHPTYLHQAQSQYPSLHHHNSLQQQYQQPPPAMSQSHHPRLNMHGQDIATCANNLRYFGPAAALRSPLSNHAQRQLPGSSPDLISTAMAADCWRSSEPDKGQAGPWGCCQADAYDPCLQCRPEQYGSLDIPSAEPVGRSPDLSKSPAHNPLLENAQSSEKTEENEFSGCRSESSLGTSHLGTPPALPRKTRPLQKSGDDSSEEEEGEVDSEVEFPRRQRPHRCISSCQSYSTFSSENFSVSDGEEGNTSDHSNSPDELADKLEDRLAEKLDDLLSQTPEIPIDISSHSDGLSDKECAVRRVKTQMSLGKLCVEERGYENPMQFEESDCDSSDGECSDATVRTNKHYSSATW

Sequence of Fibroblast growth factor receptor 3 (Homo sapiens), P22607 [G697C] (P22607 whole entry G697C): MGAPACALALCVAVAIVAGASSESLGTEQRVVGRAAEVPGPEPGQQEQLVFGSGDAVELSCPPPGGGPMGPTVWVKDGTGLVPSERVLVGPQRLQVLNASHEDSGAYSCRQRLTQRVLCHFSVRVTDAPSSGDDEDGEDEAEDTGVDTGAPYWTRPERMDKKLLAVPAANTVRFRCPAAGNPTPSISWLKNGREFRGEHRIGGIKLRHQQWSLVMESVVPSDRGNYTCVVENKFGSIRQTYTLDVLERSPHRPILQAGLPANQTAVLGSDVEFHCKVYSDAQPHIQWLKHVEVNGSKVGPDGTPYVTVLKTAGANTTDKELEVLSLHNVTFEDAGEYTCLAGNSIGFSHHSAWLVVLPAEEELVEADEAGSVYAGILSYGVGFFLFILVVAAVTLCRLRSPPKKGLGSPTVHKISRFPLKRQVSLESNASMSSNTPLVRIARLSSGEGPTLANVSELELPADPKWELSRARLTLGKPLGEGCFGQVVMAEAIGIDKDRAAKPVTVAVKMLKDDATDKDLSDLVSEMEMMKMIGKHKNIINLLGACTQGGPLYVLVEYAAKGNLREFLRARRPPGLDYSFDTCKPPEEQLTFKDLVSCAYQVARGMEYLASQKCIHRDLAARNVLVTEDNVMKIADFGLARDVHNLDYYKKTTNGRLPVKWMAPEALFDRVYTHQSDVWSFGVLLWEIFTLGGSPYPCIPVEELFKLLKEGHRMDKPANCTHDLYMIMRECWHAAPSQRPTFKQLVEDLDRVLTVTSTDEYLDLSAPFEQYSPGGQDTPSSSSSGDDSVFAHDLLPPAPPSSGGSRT
Sequence of RAC-beta serine/threonine-protein kinase (Homo sapiens) (P31751 whole entry): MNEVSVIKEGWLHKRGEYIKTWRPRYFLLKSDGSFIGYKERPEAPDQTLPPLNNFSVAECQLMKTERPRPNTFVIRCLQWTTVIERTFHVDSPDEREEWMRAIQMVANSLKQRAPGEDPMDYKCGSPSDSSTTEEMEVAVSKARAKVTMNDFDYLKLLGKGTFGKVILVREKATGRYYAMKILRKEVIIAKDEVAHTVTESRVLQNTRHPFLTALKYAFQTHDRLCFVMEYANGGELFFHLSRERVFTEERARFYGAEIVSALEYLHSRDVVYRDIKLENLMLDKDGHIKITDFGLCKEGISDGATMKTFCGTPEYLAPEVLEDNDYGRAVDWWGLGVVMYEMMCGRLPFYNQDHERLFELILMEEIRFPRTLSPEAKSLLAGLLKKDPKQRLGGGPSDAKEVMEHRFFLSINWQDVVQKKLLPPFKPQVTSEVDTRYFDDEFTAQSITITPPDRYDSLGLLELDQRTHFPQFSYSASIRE
Sequence of Receptor tyrosine-protein kinase erbB-4 (Q15303 whole entry): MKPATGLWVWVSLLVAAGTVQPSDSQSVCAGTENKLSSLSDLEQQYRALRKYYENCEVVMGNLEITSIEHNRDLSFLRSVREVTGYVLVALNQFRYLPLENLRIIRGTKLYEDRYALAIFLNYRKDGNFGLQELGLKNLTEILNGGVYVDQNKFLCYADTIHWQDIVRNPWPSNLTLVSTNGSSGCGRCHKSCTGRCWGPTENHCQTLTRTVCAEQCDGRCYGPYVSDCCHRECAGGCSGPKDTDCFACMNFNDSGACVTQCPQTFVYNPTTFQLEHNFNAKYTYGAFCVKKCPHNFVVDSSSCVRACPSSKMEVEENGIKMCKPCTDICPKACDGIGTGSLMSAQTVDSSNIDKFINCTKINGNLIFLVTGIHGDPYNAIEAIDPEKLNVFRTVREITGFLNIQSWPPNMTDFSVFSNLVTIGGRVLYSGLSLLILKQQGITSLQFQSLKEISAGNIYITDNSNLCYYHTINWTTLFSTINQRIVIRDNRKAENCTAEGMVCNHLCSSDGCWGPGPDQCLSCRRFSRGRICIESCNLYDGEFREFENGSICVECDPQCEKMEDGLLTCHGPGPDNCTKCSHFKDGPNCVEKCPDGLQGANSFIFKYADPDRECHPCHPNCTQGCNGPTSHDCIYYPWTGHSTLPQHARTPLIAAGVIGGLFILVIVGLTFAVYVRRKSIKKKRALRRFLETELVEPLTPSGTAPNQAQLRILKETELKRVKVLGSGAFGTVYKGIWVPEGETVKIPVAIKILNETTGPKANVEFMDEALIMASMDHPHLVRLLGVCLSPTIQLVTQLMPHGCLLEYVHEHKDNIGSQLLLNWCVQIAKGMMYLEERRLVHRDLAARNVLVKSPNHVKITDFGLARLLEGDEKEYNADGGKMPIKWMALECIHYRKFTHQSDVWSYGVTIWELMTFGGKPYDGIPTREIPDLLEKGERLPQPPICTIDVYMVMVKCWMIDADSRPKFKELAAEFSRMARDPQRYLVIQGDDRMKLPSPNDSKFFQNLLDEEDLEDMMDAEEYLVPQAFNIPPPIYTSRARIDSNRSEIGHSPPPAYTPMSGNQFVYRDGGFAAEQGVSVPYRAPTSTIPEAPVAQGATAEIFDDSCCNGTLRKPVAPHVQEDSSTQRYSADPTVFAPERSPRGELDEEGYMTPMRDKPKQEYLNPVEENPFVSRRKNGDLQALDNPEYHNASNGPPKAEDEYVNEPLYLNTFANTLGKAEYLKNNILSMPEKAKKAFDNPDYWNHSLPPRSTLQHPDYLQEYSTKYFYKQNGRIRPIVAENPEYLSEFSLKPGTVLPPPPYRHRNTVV
Sequence of Fibroblast growth factor receptor 3 (Homo sapiens), P22607 [K650M] (P22607 whole entry K650M): as the sequence (P22607 whole entry G697C) above, with K650M, C697G counted along it

CN(C)CCOc1ccc(-c2nc(-c3ccncc3)c(-c3ccc4c(c3)CC/C4=N\O)[nH]2)cc1
% of control [1]: 100%

C=CC(=O)Nc1ccc(C(=O)Nc2[nH]nc3c2CN(C(=O)N[C@H](CN(C)C)c2ccccc2)C3(C)C)cc1
% of engagement [2]: 22.4%

Cc1cc([C@@H](C)Nc2ccccc2C(=O)O)c2nc(N3CCOCC3)cc(=O)n2c1 [AZD-6482]
% of control [3]: 89%

Cn1cc(-n2cnc3c(NCc4nc5cc(Cl)c(Cl)cc5[nH]4)nc(N4CCOCC4)nc32)cn1
% of inhibition [4]: -105%
% of inhibition [5]: -215%

CNC(=O)Nc1ccc(-c2nc(N3CC4CCC(C3)O4)c3cnn(C4CCC5(CC4)OCCO5)c3n2)cc1
% of control [6]: 100%

C=CC(=O)Nc1cc(-n2c(=O)ccc3cnc4ccc(-c5ccc(NS(C)(=O)=O)cc5)cc4c32)ccc1C
% of control ([7]; at 1 µM): 100%
% of control ([7]; at 10 µM): 100%
